Patent US20130338383A1, “PREGNANOLONE DERIVATIVES SUBSTITUTED IN 3ALPHA-POSITION WITH THE CATIONIC GROUP, METHOD OF THEIR PRODUCTION, USAGE AND PHARMACEUTICAL PREPARATION INVOLVING THEM” (FYZIOLOGICKY USTAV AKADEMIE VED CESKE REPUBLICKY, V.V.I., priority 2011, published 2013)
Like-named read-outs stand apart in the source and are kept apart here.

What was measured:
NR1/NR2B NMDA receptors [1] = molecular target: T1, NR1/NR2B NMDA receptors (Rattus norvegicus, UniProt P35439+Q00960); assay: Patch-clamp inhibition of glutamate-elicited currents in HEK293 cells transfected with NR1-1a/NR2B; type: cell-based; settings: for IC50: calculated from relative inhibition with Hill's coefficient 1.2; for IC50 / Relative inhibition effect (%): 5 cells; for Relative inhibition effect (%): 1 mmol·l^−1 glutamic acid
T1 construct: expressed in transfected cells; host or cells: HEK293 cells (ATCC CRL1573)
T1 sequence (Q00960 27-1482, other chains not shown): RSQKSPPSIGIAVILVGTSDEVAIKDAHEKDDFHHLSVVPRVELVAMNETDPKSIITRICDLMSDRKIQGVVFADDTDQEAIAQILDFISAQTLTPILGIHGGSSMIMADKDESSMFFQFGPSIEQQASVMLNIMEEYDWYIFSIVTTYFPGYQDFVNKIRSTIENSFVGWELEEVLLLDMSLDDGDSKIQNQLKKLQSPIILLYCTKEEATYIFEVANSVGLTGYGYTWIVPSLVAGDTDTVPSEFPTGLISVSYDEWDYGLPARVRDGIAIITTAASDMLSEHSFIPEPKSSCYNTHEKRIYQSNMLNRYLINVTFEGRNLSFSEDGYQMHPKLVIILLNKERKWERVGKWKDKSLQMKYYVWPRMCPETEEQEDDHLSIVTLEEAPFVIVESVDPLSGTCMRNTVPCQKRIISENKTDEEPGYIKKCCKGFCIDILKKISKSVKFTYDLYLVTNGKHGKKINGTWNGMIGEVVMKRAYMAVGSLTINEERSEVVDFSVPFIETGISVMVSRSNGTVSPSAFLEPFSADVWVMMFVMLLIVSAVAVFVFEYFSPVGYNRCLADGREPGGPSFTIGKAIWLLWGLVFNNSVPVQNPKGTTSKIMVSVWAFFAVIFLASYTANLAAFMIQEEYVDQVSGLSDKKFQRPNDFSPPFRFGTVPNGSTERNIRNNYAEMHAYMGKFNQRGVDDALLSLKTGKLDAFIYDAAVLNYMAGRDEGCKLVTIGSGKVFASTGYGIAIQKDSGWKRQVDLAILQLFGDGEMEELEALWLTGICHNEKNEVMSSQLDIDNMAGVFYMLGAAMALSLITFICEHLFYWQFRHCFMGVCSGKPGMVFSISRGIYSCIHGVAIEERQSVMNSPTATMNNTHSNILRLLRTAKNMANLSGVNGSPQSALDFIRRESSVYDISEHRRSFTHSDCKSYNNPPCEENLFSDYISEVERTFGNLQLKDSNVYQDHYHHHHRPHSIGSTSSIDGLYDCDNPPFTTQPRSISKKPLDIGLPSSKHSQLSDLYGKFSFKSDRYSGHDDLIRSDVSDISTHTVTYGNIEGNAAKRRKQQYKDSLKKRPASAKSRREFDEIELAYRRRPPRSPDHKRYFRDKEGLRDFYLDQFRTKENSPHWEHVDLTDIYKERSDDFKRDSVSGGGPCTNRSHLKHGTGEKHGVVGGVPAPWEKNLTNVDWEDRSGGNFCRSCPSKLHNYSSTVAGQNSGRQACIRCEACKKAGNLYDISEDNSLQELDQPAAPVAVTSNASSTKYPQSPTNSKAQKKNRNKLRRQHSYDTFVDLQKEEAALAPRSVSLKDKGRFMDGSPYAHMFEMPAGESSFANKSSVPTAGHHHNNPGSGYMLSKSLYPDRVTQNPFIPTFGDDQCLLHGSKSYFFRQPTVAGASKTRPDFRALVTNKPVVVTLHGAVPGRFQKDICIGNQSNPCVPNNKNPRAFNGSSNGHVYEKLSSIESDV
Procedure: The membrane potentials were maintained at −60 mV or +60 mV. Patch-clamp technique was used to record the currents from cultivated HEK293 cells with transfected NR1/NR2B NMDA receptors. Relative inhibition elicited by the compound from the example 2 was calculated from the formula (1−a/b)*100(%).
Degree of activated NMDA receptor inhibition by steroid cationic compounds was measured in vitro electrophysiologically on cultivated HEK293 cells (Human Embryonic Kidney 293 cells) 24-48 h after the transfection with DNA plasmids, coding NR1-1a and NR2B subunit of NMDA receptor. Transfected cells were identified by means of fluorescent green protein (GFP) fluorescence. Its genus was transfected together with the both receptor subunit genes.
Steroid-containing solutions were prepared from fresh solution (20 mmol·l^−1, of steroid dissolved in dimethyl-sulfoxide, DMSO), which was added to the extracellular solution containing 1 mmol·l^−1 glutamic acid and 10 μmol·l^−1 of glycine. Same concentrations of DMSO were added to all other extracellular solutions.
Current responses produced by extracellular application of glutamic acid solution (1 mmol·l^−1) were measured from the whole cell by patch-clamp technique, which is used for the study of transport of charged particles through model and also natural biological membranes. The currents were measured at membrane potential maintained at −60 mV and +60 mV.
HEK293 cells (American Type Culture Collection, ATTC No. CRL1573, Rockville, Md.) were cultivated in Opti-MEM® I media (Invitrogen) with addition of 5% fetal bovine serum at 37° C. and transfected with NR1-1a/NR2B/GFP plasmids, as described in the scientific literature (Cais et al., 2008). Same amounts (0.3 μg) of cDNA coding NR1, NR2 and GFP (green fluorescent protein) (pQBI 25, Takara, Japan) were mixed with 0.9 μl of Matra-A Reagent (IBA, Göttingen, Germany) and added to confluent HEK293 cells cultivated in v 24-pit cultivating plate. After trypsination, the cells were re-suspended in Opti-MEM® I containing 1% fetal bovine serum. Subsequently, 20 mmol·l^−1 MgCl2, 1 mmol D,L-2-amino-5-phosphonopentanoic acid, 3 mmol·l^−1 kynurenic acid was added to the mixture and cells were inoculated on the polylysine-coated glass plates having 25 mm in diameter. The following genes coding NMDA receptor subunits were used for transfection: NR1-1a (GenBank accession no. U08261) and NR2B (GenBank accession no. M91562).
HEK293 Cultured cells were used for electrophysiological investigations with a latency of 16-40 h after transfection. Whole-cell currents were measured by patch-clamp amplifier (Axopatch 1D; Axon Instruments, Inc. Foster City, USA) after capacitance and serial resistance (<10 MΩ) compensation to 80-90%. Agonist-induced responses were filtered to 1 kHz (8-pole Bessel filter; Frequency Devices, Haverhill, USA), digitized with sampling frequency of 5 kHz and analyzed by pClamp version 9 software (Axon Instruments, USA). Micropipettes made of borosilicate glass were filled with intracellular solution, containing 125 mmol·l^−1 D-glukonic acid, 15 mmol·l^−1 cesium chloride, 5 mmol·l^−1 EGTA, 10 mmol·l^−1 HEPES buffer, 3 mmol·l^−1 magnesium chloride, 0.5 mmol·l^−1 calcium chloride and 2 mmol·l^−1 magnesium-salt of ATP (pH adjusted to 7.2 by cesium hydroxide solution). Extracellular solution (ECS) contained 160 mmol·l^−1 sodium chloride, 2.5 mmol·l^−1 potassium chloride, 10 mmol·l^−1 HEPES, 10 mmol·l^−1 glucose, 0.2 mmol·l^−1 EDTA a 0.7 mmol·l^−1 calcium chloride (pH adjusted to 7.3 by sodium hydroxide solution). Glycine was added to both testing and control solution.

[2] = tested on: NMDA receptors on hipocampal neurones; settings: pregnanolone sulfate 100 μmol·l^−1; responses elicited by NMDA; −60 mV; n=5; Petrovic et al., 2005; cited from earlier work
NR1/NR2B NMDA receptors [3] = molecular target: T1, NR1/NR2B NMDA receptors; settings: pregnanolone sulfate 100 μmol·l^−1, recombinant NR1/NR2B receptors, n=5, Petrovic et al., 2005, cited from earlier work
male mice strain B6 = assay: Anesthetic effect after i.p. injection; type: in vivo; settings: 100 mg/kg i.p. in β-cyclodextrine
Procedure: Anesthetic effect of 3α5β pregnanolon argininate was tested on 2-month-old male mice strain B6. Animals were randomly assigned to 3 groups per 7 animals each. The first group was injected i.p. with saline, the second group received i.p. cyclodextrine, the third group obtained received the pregnanolon argininate at a dose 100 mg/kg (dissolved in β-cyclodextrine).

mice strain B6 = assay: Spontaneous locomotor activity in the open-field test; type: in vivo; settings: 10 mg/kg subcutaneously in cyclodextrin, 60 min session
Procedure: Animals were tracked with iTrack (Biosignal group, USA) and total path during this session was evaluated. The pregnanolone argininate was applied subcutaneously (dissolved in cyclodextrin) prior to behavioral observations at doses 10 mg/kg; control animals were injected with saline and cyclodextrin.

Long-Evans male rats = assay: Carousel maze (active allothetic place avoidance, AAPA): locomotion and cognitive function; type: in vivo
Procedure: Effect of pregnanolone argininate and nitrate and action of dizocilpine (a non-competitive antagonist of NMDA receptors; standardly used as positive control and referred hereafter as dizocilpine) on the behavior of rats in Carousel maze (active allothetic place avoidance (AAPA)), a spatial task requiring spatial orientation and cognitive functions
The effect of compounds on cognitive behaviors and locomotion was assessed using Carousel maze (active allothetic place avoidance (AAPA) task), which requires intact hippocampi and ability of animals to navigate in space using distinct reference frames (spatial navigation and “cognitive coordination”) (Wesierska et al., 2005) and it also allows measuring changes in the accompanying locomotor activity. AAPA task training involves animals trained to move over a slowly rotating uniform circular arena, on which a prohibited sector is defined, entering which is punished by a mild footshock. A shock sector and its position can be determined solely by its relationship to distal orienting cues in the room (Stuchlik et al., 2008).
This task is highly dependent upon hippocampal formation, with unilateral reversible ablation of this structure with TTX leading to avoidance deficit (Cimadevilla et al., 2001). Animals solving this task should walk in a direction opposite to arena rotation; otherwise it would be repeatedly brought to a fixed sector by arena rotation. We conducted 4 acquisition session of AAPA task, during which the sector location was always reinforced and remained stable throughout the training. Each session lasted 20 min.
The effect was tested on 2-month-old Long-Evans male rats. Control animals obtained cyklodextrine (s.c.), experimental groups received subcutaneous (s.c.) injections of the compound from example 2 at doses 1 mg/kg (dissolved in cyclodextrin). Intraperitonal application of dizocilpine (a non-competitive NMDA receptor antagonist; showing significant neuroprotective activity but exerting cognition-disturbing and psychotomimetic effects) was used as a positive control. Dizocilpine was applied at doses 0.15 mg/kg. It is worth noting that dizocilpine (albeit its experimental neuroprotective activity) is often used to model schizophrenia-like behaviors in […] and it has been repeatedly shown to exert a dose-dependent learning deficit and hyperlocomotion.
Locomotor activity of animals was assessed in the AAPA as total distance traveled in the coordinate frame of the arena (without passive rotation) in each 20-min session.
Another parameter, which can be measured and which brings a spatial aspect to behavioral analysis, is number of entrances into prohibited sector (occasionally termed “number of errors”).

[4] = dizocilpine 0.15 mg/kg intraperitoneal, positive control

## 5β-pregnanolon-3α-yl-sulfate [Pregnanolone sulfate]
NR1/NR2B NMDA receptors [1]
  IC50: 55 µM
[2]
  mean inhibition effect: 71.3±5.0%
NR1/NR2B NMDA receptors [3]; listed as 5β-pregnanolon-3α-yl-sulfate
  Relative inhibition effect (%): 67%
NR1/NR2B NMDA receptors [3]; listed as pregnanolone sulfate
  Relative inhibition effect (%): 67.2±8.2%

## CC(=O)O.CC(=O)O.CC(=O)[C@H]1CC[C@H]2[C@@H]3CC[C@@H]4C[C@H](OC(=O)[C@@H](N)CCCNC(=N)N)CC[C@]4(C)[C@H]3CC[C@]12C [Example 2, 20-Oxo-5β-pregnan-3α-yl L-argininate diacetate salt]
Male mice strain B6
  time after injection to anesthesia: 5 to 20 min
  time after injection to decreased locomotor activity: 3 to 15 min
  time to spontaneous awakening: 1 to 3 h
NR1/NR2B NMDA receptors [1]; 10 μmol·l^−1, FIG. 1B
  dependence of average inhibition on the maintained membrane potential: independence
NR1/NR2B NMDA receptors [1]; 10 μmol·l^−1 applied simultaneously with 1 mmol·l^−1 glutamic acid, −60 mV or +60 mV, FIG. 1A
  reversibility of inhibition of the current response: reversible inhibition
NR1/NR2B NMDA receptors [1]
  IC50: 5.3 µM
NR1/NR2B NMDA receptors [1]; steroid 10 μmol·l^−1
  Relative inhibition effect (%): 69.2 ± 9.6%
Mice strain B6
  spontaneous locomotor activity (total path): did not significantly alter
Long-Evans male rats; compound from example 2 1 mg/kg s.c. in cyclodextrin (nitrate dose not given), 20-min session, vs cyclodextrin controls, diacetate salt, 1 mg/kg
  locomotor activity: total distance per session in AAPA: no significant effect
Long-Evans male rats; compound from example 2 1 mg/kg s.c. in cyclodextrin (nitrate dose not given), 20-min session, vs cyclodextrin controls, listed as pregnanolone argininate, diacetate salt, 1 mg/kg
  locomotor activity: total distance per session in AAPA: failed to exhibit either decrease or increase
Long-Evans male rats; compound from example 2 1 mg/kg s.c. in cyclodextrin (nitrate dose not given), vs cyclodextrin controls, diacetate salt, 1 mg/kg
  number of entrances into shock sector (spatial cognition): no significant effect
Long-Evans male rats; compound from example 2 1 mg/kg s.c. in cyclodextrin (nitrate dose not given), vs cyclodextrin controls, listed as pregnanolone argininate, diacetate salt, 1 mg/kg
  number of entrances into shock sector (spatial cognition): do not caused worsening

## CC(=O)[C@H]1CC[C@H]2[C@@H]3CC[C@@H]4C[C@H](OC(=O)CN(C)C(=N)N)CC[C@]4(C)[C@H]3CC[C@]12C.Cl [Example 5, 20-Oxo-5β-pregnan-3α-yl 2-(methylguanidino) acetate hydrochloride]
NR1/NR2B NMDA receptors [1]
  IC50: 3.3 ± 0.7 µM
NR1/NR2B NMDA receptors [1]; steroid 10 μmol·l^−1
  Relative inhibition effect (%): 79.2 ± 4.2%

## CC(=O)[C@H]1CC[C@H]2[C@@H]3CC[C@@H]4C[C@H](OC(=O)CCC[N+](C)(C)C)CC[C@]4(C)[C@H]3CC[C@]12C.[Cl-] [Example 6, 20-Oxo-5β-pregnan-3α-yl 4-(trimethylammonium) butanoate chloride]
NR1/NR2B NMDA receptors [1]
  IC50: 5.9 µM
NR1/NR2B NMDA receptors [1]; steroid 10 μmol·l^−1
  Relative inhibition effect (%): 65.4 ± 3.4%

## CCC(CCC(=O)O[C@@H]1CC[C@@]2(C)[C@H](CC[C@@H]3[C@@H]2CC[C@]2(C)[C@@H](C(C)=O)CC[C@@H]32)C1)[N+](C)(C)C.[Cl-] (stereo partly drawn) [Example 7, 20-Oxo-5β-pregnan-3α-yl 4-(trimethylammonium) hexanoate chloride]
NR1/NR2B NMDA receptors [1]
  IC50: 23.6 µM
NR1/NR2B NMDA receptors [1]; steroid 100 μmol·l^−1, −60 mV
  Relative inhibition effect (%): 85.6 +/− 2.3%

## CC(=O)[C@H]1CC[C@H]2[C@@H]3CC[C@@H]4C[C@H](OC(=O)C[N+](C)(C)C)CC[C@]4(C)[C@H]3CC[C@]12C.[Cl-] [Example 8, 20-Oxo-5β-pregnan-3α-yl-2-(trimethylammonium) acetate hydrochloride]
NR1/NR2B NMDA receptors [1]
  IC50: 22.4 µM
NR1/NR2B NMDA receptors [1]; steroid 30 μmol·l^−1, −60 mV
  Relative inhibition effect (%): 57.0 ± 9.6%

## CC(=O)C1CCC2C3CC[C@@H]4C[C@H]([N+](C)(C)C)CC[C@]4(C)C3CC[C@]12C.[Cl-] (stereo partly drawn) [Example 10, 3-(Trimethylammonium)-5β-pregnan-20-one chloride]
other
  melting point: 237 to 240 °C (dec.)
NR1/NR2B NMDA receptors [1]
  IC50: 107 µM
NR1/NR2B NMDA receptors [1]; steroid 100 μmol·l^−1, −60 mV
  Relative inhibition effect (%): 69.2 ± 9.6%

## C[C@]12N[C@H](Cc3ccccc31)c1ccccc12 [dizocilpine, reference compound]
Long-Evans male rats; [4]
  locomotor activity: total distance per session in AAPA: stimulated the locomotor activity
  number of entrances into shock sector (spatial cognition): dose-dependently disrupted
Long-Evans male rats; dizocilpine 0.15 mg/kg intraperitoneal, positive control, listed as MK-801
  number of entrances into shock sector (spatial cognition): disrupts
